Substitutions are numbered along the chain they refer to.
Assays:
[1] = molecular target: T1, human MCU S259A mutant (Homo sapiens, UniProt Q8NE86, S259A); assay: mCa2+ uptake in permeabilized HEK293T cells expressing MCU S259A mutant; assay type: cell-based; conditions: C-2 10 nM, Ru360 500 nM
T1 construct: stably expressing flag-tagged full-length human wild type MCU (MCU^WT) or the mutant S259A (MCU^S259A); Flag; expressed in transfected cells
T1 sequence (Q8NE86 51-351 S259A): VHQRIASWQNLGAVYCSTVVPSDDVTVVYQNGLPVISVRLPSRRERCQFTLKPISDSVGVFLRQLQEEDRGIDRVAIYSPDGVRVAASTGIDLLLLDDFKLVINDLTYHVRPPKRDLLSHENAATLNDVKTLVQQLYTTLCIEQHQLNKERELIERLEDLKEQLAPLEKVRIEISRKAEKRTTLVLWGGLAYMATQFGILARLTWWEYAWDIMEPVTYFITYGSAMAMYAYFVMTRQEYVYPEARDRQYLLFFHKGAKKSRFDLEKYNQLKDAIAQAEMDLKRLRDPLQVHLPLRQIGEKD
T1 sequence (Q9H4I9 48-107 partner limits assumed): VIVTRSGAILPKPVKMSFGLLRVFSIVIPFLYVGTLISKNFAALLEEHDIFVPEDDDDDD
Description: (§1) An equal number of IHEK293T (6×10^6 cells) were washed in Ca^2+ free PBS, pH 7.4, resuspended and permeabilized with 40 μg/ml digitonin in 1.5 ml of intracellular medium (ICM) composed of 120 mM KCl, 10 mM NaCl, 1 mM K—H2PO4, 20 mM HE PES-Tris, pH 7.2 and 2 μM thapsigargin to block the SERCA pump. All measurements were performed in the presence of 2 mM succinate. The permeabilized cells were loaded with JC-1 (800 nM) and Fura2-FF (0.5 μM), respectively. Fluorescence was monitored in a multi-wavelength excitation dual-wavelength emission fluorimeter. [Ca^2+]out is represented as the excitation ratio (340 nm/380 nm) of Fura2-FF/FA fluorescence and ΔΨm as the ratio of the fluorescence of J-aggregate (570 nm excitation/595 nm emission) and monomer (490 nm excitation/535 nm emission) forms of JC-1. A series of extra-mitochondrial Ca^2+ bolus (20 μM) was added and mitochondrial uncoupler, CCCP (2 jμM), were added at the indicated time points. All of the experiments were performed at 37° C. with constant stirring.
Having observed the high potency of C-2 compared to Ru360, the mechanism of action of C-2 was next investigated. […] HIEK293T cells stably expressing flag-tagged full-length human wild type MCU (MCU^WT) or the mutant S259A (MCU^S259A) were permeabilized and mCa^2+ uptake was measured as above.

[2] = molecular target: T2, MCU C97A mutant (Homo sapiens, UniProt Q8NE86, C97A); assay: mCa2+ uptake in permeabilized HEK293T cells expressing MCU C97A mutant; assay type: cell-based; conditions: C-2 10 nM, Ru360 500 nM
T2 construct: stably expressing Flag-tagged full-length wild-type MCU (MCU^WT) and the mutant C97A (MCU^C97A); Flag; expressed in transfected cells
T2 sequence (Q8NE86 51-351 C97A): T1 sequence (Q8NE86 51-351 S259A) with C47A, A209S
T2 sequence (Q9H4I9 48-107 partner limits assumed): T1 sequence (Q9H4I9 48-107 partner limits assumed)
Description: as §1
To determine if C-2 interacts with the NTD, HEK293T cells stably expressing Flag-tagged full-length wild-type MCU (MCU^WT) and the mutant C97A (MCU^C97A) were permeabilized, and mCa^2+ uptake was measured as above.

[3] = molecular target: T3, recombinant human MCU-NTD (residues 72-189) (Homo sapiens, UniProt Q8NE86); assay: Interaction with recombinant MCU-NTD (NMR HSQC, SDS-PAGE); assay type: binding; conditions: for interaction with MCU-NTD in solution: cell-free, C-2 at 3-fold molar excess
T3 construct: recombinant human MCU-NTD (residues 72-189)
T3 sequence (Q8NE86 72-189): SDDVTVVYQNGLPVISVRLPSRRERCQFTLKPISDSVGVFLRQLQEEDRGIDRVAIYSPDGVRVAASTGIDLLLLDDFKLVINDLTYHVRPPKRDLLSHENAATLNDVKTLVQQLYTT
Source text: To further elucidate the potential interaction of C-2 with the MCU-NTD, the interaction between C-2 and the uniformly ^15N-labeled recombinant human MCU-NTD (residues 72-189) was investigated using solution nuclear magnetic resonance (NMR) spectroscopy.
To determine if the MCU-NTD remained intact upon treatment with C-2, the insoluble aggregate (Insol.+C-2) was resuspended in loading dye and the migration of the protein was compared to untreated soluble MCU-NTD (Sol.) by SDIS-PAGE analysis. […] The appearance of the trimer and higher order aggregates upon treatment with C-2 may indicate that the MCU-NTD conformation induced by C-2 is different from that of the native conformation. Similar MCU-NTD aggregation was observed when the MCU-NTD was treated with lower molar ratios (i.e. 1:2 and 1:1) of C-2.
The clustering of these perturbations could be a result of i) direct binding with the compound, ii) indirect effects of the lower soluble protein concentration shifting the self-association equilibrium, or iii) C-2-mediated modifications to the protein. […] Thus, the NTD may be a potent target for MCU inhibition that is only accessible to C-2 because of its enhanced membrane permeability when compared to Ru360.

SMILES | effect of MCU S259A mutation on MCU inhibition compared to MCU WT cells [1] | effect of MCU C97A mutation on MCU inhibition compared to MCU WT cells [2] | interaction with MCU-NTD in solution [3] | SDS-PAGE of protein precipitate formed with MCU-NTD ([3]; Coomassie blue staining)
N.N.N.N.N.N.N.N.O=C[O-].O=C[O-].[O-2].[Ru+3].[Ru+4] [Ru360, reference compound] | partial resistance to Ru360 inhibition | almost no effect on the activity | interacts with the purified MCU-NTD in a cell-free system, giving rise to precipitation and systematic laddering | –
N.N.N.N.N.N.N.N.[Cl-].[Cl-].[N-3].[Ru+4].[Ru+4] [C-2, [Ru2(μ-N)(NH3)8Cl2]Cl3] | almost no change in the inhibitory activity | significantly reduced MCU inhibitory activity | rapid formation of insoluble precipitate | distinct and systematic laddering corresponding to the presence of monomer, dimer, trimer, tetramer, and higher aggregate formation

Source: US11154569B2, “Ruthenium μ-nitrido complexes and their use as calcium uptake inhibitors” (CORNELL UNIVERSITY, priority 2018, dated 2021)
